According to ChEMBL document CHEMBL2073897, “Major role of organic anion transporter 3 in the transport of indoxyl sulfate in the kidney” (Kidney Int, 2002):
One block for each molecule: values may come before it.

Tests used:
[1] = biological target: T1, Organic anion transporter 3 (OAT3) (Rattus norvegicus, UniProt Q9R1U7); test: TP_TRANSPORTER: inhibition of Indoxyl sulfate uptake (indoxyl sulfate: 2 uM, 4-Hydroxyphenylacetic acid: 1000 uM) in Xenopus laevis oocytes; assay type: functional, cell-based, Oocyte; design: scale not given: the % may be the effect or the level left; conditions: probe indoxyl sulfate (2 uM), read-out: Activity
T1 sequence (Q9R1U7 whole entry): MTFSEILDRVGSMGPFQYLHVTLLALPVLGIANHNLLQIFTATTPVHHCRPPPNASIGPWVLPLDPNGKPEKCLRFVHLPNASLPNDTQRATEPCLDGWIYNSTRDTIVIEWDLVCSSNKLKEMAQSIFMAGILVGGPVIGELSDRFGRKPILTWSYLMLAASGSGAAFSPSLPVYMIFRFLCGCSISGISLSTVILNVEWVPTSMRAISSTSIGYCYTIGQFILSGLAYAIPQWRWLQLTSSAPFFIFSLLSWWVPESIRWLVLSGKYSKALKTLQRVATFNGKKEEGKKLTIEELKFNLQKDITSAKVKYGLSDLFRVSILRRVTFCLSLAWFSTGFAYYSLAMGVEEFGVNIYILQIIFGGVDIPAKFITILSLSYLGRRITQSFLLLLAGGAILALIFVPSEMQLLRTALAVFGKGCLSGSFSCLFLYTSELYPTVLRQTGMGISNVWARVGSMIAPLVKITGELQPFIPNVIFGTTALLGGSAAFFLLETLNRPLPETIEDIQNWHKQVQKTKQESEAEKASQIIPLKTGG

[2] = biological target: T1, Organic anion transporter 3 (OAT3); test: TP_TRANSPORTER: inhibition of Indoxyl sulfate uptake (indoxyl sulfate: 2 uM, 4-Hydroxybenzoic acid: 1000 uM) in Xenopus laevis oocytes; assay type: functional, cell-based, Oocyte; design: scale not given: the % may be the effect or the level left; conditions: probe indoxyl sulfate (2 uM), read-out: Activity
[3] = biological target: T1, Organic anion transporter 3 (OAT3); test: TP_TRANSPORTER: inhibition of Indoxyl sulfate uptake (indoxyl sulfate: 2 uM, 2-Hydroxycinnamic acid: 1000 uM) in Xenopus laevis oocytes; assay type: functional, cell-based, Oocyte; design: scale not given: the % may be the effect or the level left; conditions: probe indoxyl sulfate (2 uM), read-out: Activity
[4] = biological target: T2, Organic anion transporter 3 (Rattus norvegicus, UniProt Q9R1U7); test: TP_TRANSPORTER: inhibition of Indoxyl sulfate uptake (indoxyl sulfate: 2 uM, Hippurate: 1000 uM) in Xenopus laevis oocytes; assay type: functional, cell-based; design: scale not given: the % may be the effect or the level left; conditions: oocyte
T2 sequence (Q9R1U7 whole entry): T1 sequence (Q9R1U7 whole entry)

[5] = biological target: T1, Organic anion transporter 3 (OAT3); test: TP_TRANSPORTER: inhibition of Indoxyl sulfate uptake (indoxyl sulfate: 2 uM, CMPF: 1000 uM) in Xenopus laevis oocytes; assay type: functional, cell-based, Oocyte; design: scale not given: the % may be the effect or the level left; conditions: probe indoxyl sulfate (2 uM), read-out: Activity
[6] = biological target: T1, Organic anion transporter 3 (OAT3); test: TP_TRANSPORTER: inhibition of Indoxyl sulfate uptake (indoxyl sulfate: 2 uM, Indoleacetic acid: 1000 uM) in Xenopus laevis oocytes; assay type: functional, cell-based, Oocyte; design: scale not given: the % may be the effect or the level left; conditions: probe indoxyl sulfate (2 uM), read-out: Activity
[7] = substrate: O=S(=O)(O)Oc1c[nH]c2ccccc12; test: TP_TRANSPORTER: uptake in Xenopus laevis oocytes; assay type: functional, cell-based, Oocyte

Molecule: O=C(O)CNC(=O)c1ccccc1 [HIPPURIC ACID]
Activity [4]: 24.6%

Molecule: CCCc1oc(CCC(=O)O)c(C(=O)O)c1C
activity at 1000 µM [5]: 8.38%

Molecule: CC(=O)Oc1c[nH]c2ccccc12 [INDOLE ACETATE]
activity at 1000 µM [6]: 51.2%

B1: Organic anion transporter 3 (Rattus norvegicus) (protein)
chain: T1 sequence (Q9R1U7 whole entry)
Km [7]: 158 µM

The remaining lines, values ahead:

activity at 1000 µM [1]: 29.7%
Molecule: O=C(O)Cc1ccc(O)cc1

activity at 1000 µM [2]: 22.1%
Molecule: O=C(O)c1ccc(O)cc1 [PARABEN]

activity at 1000 µM [3]: 39.5%
Molecule: O=C(O)/C=C/c1ccccc1O [O-COUMARIC ACID]
